Source: patent US12559529B2, “NPY2 receptor agonists” (Boehringer Ingelheim International GmbH, priority 2019, dated 2026)

Assays:
[1] = biological target: T1, Human Neuropeptide Y2 Receptor (Homo sapiens, UniProt P49146); assay: Activity (RLB) after incubation in solutions at different pH values; format: binding; details: apparent Ki of filtrate after 2 h in buffer
T1 construct: purchased CHEMICON HTS066M
T1 sequence (P49146 1-381): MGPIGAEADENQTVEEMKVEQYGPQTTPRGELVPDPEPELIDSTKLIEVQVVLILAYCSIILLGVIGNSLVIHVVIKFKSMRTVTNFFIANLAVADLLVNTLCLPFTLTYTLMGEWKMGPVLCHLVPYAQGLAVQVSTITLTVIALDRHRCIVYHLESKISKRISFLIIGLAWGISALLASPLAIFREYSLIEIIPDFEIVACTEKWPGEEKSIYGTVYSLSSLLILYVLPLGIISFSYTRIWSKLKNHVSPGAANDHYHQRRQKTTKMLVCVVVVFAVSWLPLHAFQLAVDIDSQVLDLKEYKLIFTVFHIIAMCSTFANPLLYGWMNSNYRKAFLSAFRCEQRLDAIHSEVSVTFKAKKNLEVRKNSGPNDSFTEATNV
Procedure: The filtration RLB assay was carried out in 96-well plates in a final volume of 100 μl per well. Freeze-dried test peptides were dissolved in 100% dimethyl sulfoxide (DMSO) to stock solutions of 1 mM and serial dilutions were performed in assay buffer (50 mM HEPES, 5 mM MgCl2, 1 mM CaCl2), pH 7.4) containing 0.2% ovalbumin. […] Next, 80 μL membranes (HTS066M, ChemiSCREEN™ Human Neuropeptide Y2 Receptor Membrane Preparation, CHEMICON) were added to each well to give a final protein concentration of 0.5 μg/well. The plates were sealed and incubated at room temperature for 2 hours in a plate shaker set at 400 rpm. The incubation was stopped by vacuum filtration onto 0.5% poly-ethylene amine (PEI) presoaked GF/C filters using a 96-well FilterMate™ harvester (Perkin Elmer) followed by four washes with 300 μl/well ice-cold wash buffer (50 mM HEPES, 500 mM NaCl, pH7.4). Filter plates were then dried for 60 min at room temperature and the bottom of the plates was sealed with backing tape UniFilter-96. Finally, 50 μl/well scintillation counter cocktail (Microscint20, Packard) was added and the radioactivity was counted in the Packard TopCount NXT scintillation counter. IC50 values (the half maximal inhibitory concentration of the agonist) were calculated by nonlinear regression analysis of sigmoidal dose-response curves.
Peptides (as TFA salts) were weighed out in a filter unit (Mini-UniPrep Syringeless Filter 0.45 μm, Whatman), and 0.1 M sodium diphosphate buffer at pH 6.4 or 7.4, respectively, or 0.2 M TRIS buffer at pH 8.3 was added to achieve 10 mg/ml final concentration. The peptide was (partially) dissolved by shaking the filter unit horizontally at approx. 400 rpm for 2 hours at room temperature. The sample was filtered to remove any insoluble particles.

[2] = biological target: T1, Human Neuropeptide Y2 Receptor; assay: Radioligand binding competition assay (RLB)
How it was run: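 Filtration format; Y2R membrane prep 0.5 μg/well; buffer 50 mM HEPES/5 mM MgCl2/1 mM CaCl2/0.2% ovalbumin pH 7.4; 2 h RT, shaking. Harvest on PEI-soaked GF/C, ice-cold HEPES/500 mM NaCl washes, scintillation count. IC50 by nonlinear fit.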

[3] = biological target: T2, human NPY1 receptor (Homo sapiens, UniProt P25929); assay: HTRF cAMP Gi assay, hY1R; format: cell-based; details: Table 4; CHO-K1 cells
T2 construct: expressed in transfected cells; host or cells: CHO-K1
T2 sequence (P25929 1-384): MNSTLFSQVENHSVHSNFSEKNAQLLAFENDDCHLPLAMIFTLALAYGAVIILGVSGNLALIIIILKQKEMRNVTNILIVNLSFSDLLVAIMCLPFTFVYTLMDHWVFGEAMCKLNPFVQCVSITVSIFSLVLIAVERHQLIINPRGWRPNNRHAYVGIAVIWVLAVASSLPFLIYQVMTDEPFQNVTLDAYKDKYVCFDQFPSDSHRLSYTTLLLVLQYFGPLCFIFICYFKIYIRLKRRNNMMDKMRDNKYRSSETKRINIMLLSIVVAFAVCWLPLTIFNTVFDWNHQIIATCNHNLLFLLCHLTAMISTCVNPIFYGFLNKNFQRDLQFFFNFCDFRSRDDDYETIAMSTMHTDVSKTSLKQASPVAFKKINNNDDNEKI
Procedure: Briefly, the production of intracellular cAMP will generate a competition between unlabeled cAMP and exogenously added d2-cAMP for anti-cAMP antibodies conjugated to cryptate. CHO-K1 cells stably expressing the human NPY1, NPY2, NPY4 and NPY5 receptors were used with the cells brought to life from a frozen stock immediately before assay performance. 2000 cells per well were applied for all four NPY receptor subtype assays. A 384-well format was used applying a total volume of 20 μl using 5 μl cells, 2.5 μl peptide agonist, 2.5 μl forskolin and 5 μl of each of the fluorophores. […] Concentration-response evaluation of compounds was performed with 11 concentrations of agonist peptides (covering 3 decades). EC50 values were calculated by nonlinear regression using sigmoid concentration-response with variable slope.

[4] = biological target: T3, human NPY4 receptor (Homo sapiens, UniProt P50391); assay: HTRF cAMP Gi assay, hY4R; format: cell-based; details: Table 4; CHO-K1 cells
T3 construct: expressed in transfected cells; host or cells: CHO-K1
T3 sequence (P50391 whole entry): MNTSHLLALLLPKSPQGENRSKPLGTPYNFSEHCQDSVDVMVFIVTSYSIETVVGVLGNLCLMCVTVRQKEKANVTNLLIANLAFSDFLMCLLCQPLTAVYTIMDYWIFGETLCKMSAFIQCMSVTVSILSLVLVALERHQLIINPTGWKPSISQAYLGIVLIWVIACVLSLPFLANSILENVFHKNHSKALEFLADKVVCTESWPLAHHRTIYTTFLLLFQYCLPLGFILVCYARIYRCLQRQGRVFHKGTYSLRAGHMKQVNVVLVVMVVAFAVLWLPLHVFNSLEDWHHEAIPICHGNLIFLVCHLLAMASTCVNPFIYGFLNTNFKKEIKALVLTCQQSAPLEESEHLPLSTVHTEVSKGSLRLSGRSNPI
Text: (§1) The Homogenous Time Resolved fluorescence (HTRF) technology optimized for Gi coupled receptors has thoroughly been described in Cisbio cAMP Gi kit manual. Briefly, the production of intracellular cAMP will generate a competition between unlabeled cAMP and exogenously added d2-cAMP for anti-cAMP antibodies conjugated to cryptate. CHO-K1 cells stably expressing the human NPY1, NPY2, NPY4 and NPY5 receptors were used with the cells brought to life from a frozen stock immediately before assay performance. 2000 cells per well were applied for all four NPY receptor subtype assays. A 384-well format was used applying a total volume of 20 μl using 5 μl cells, 2.5 μl peptide agonist, 2.5 μl forskolin and 5 μl of each of the fluorophores. […] Concentration-response evaluation of compounds was performed with 11 concentrations of agonist peptides (covering 3 decades). EC50 values were calculated by nonlinear regression using sigmoid concentration-response with variable slope.

[5] = biological target: T4, human NPY5 receptor (Homo sapiens, UniProt Q15761); assay: HTRF cAMP Gi assay, hY5R
T4 sequence (Q15761 1-445): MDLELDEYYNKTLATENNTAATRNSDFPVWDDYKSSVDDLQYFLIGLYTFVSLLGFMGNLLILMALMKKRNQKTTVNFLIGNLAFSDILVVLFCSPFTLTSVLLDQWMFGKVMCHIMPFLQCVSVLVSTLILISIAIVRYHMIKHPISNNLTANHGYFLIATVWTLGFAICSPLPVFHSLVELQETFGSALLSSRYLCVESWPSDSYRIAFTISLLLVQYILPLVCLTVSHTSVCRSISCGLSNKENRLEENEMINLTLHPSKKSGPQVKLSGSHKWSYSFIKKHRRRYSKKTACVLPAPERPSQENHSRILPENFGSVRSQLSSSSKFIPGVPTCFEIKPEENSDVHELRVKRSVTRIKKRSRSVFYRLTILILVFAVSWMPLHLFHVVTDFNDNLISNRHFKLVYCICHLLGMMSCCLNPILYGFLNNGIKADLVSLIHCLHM
Text: as §1

[6] = pH6.1-6.2, assumed 10 mg/ml, read-out: RLB 6 (pH6.1-6.2)
[7] = Table 3, human 125I-PYY (1-36) 0.02 nM, Y2 receptor membranes, read-out: Ki
[8] = Table 8, from DMSO stock, read-out: hY2R RLB Ki (nM) DMSO

Ki [1, 6] [nM]	Ki [2, 7] [nM]	Ki [2, 8] [nM]	EC50 [3] [nM]	EC50 [4] [nM]	EC50 [5] [nM]	Ki ([1]; pH7.1-7.2, assumed 10 mg/ml, read-out: RLB 7 (pH7.1-7.2)) [nM]	SMILES
6.6	1.19	3.5	–	–	–	–	CC[C@H](C)[C@H](NC(=O)[C@H](CCC(=O)O)NC(=O)[C@H](CCC(=O)O)NC(=O)[C@@H]1CCCN1C(=O)[C@H](CO)NC(=O)[C@H](C)NC(=O)[C@H](CC(=O)O)NC(=O)[C@H](CCC(=O)O)NC(=O)[C@H](CCC(=O)O)NC(=O)[C@@H]1CCCN1C(=O)[C@H](CCCCNC(=O)COCCOCCNC(=O)COCCOCCNC(=O)CC[C@H](NC(=O)CCCCCCCCCCCCCCCCC(=O)O)C(=O)O)NC(=O)[C@H](CCC(=O)O)NC(=O)[C@@H]1CCCN1C(=O)[C@H](C)NC(=O)CC(C)C)C(=O)N[C@@H](CCC(N)=O)C(=O)N[C@@H](CCCNC(=N)N)C(=O)N[C@@H](Cc1ccc(O)cc1)C(=O)N[C@@H](Cc1ccc(O)cc1)C(=O)N[C@H](C(=O)N[C@@H](CO)C(=O)N[C@@H](CC(C)C)C(=O)N[C@@H](CCCNC(=N)N)C(=O)N[C@@H](Cc1c[nH]cn1)C(=O)N[C@@H](Cc1ccc(O)cc1)C(=O)N[C@@H](Cc1ccc(O)cc1)C(=O)N[C@@H](CC(N)=O)C(=O)N[C@@H](Cc1c[nH]c2ccccc12)C(=O)N[C@@H](CC(C)C)C(=O)N[C@H](C(=O)N[C@@H](CCCNC(=N)N)C(=O)N[C@@H](CCC(N)=O)C(=O)N[C@@H](CCCNC(=N)N)C(=O)N[C@@H](Cc1ccc(O)cc1)C(N)=O)[C@@H](C)O)C(C)C [Compound 84, N{alpha-4}-(3-methylbutanoyl)-N{epsilon-7}-[2-(2-{2-[2-(2-{2-[(4S)-4-carboxy-4-(17-carboxyheptadecanamido)butanamido]ethoxy}ethoxy)acetamido]ethoxy}ethoxy)acetamido]-[4A,7K,9E,17I,18Q,22V,28Y,30W,31L]hPYY (4-36)]
3	–	–	> 5000	> 5000	> 5000	–	CC[C@H](C)[C@H](NC(=O)[C@H](CCC(=O)O)NC(=O)[C@H](CCC(=O)O)NC(=O)[C@@H]1CCCN1C(=O)[C@@H](NC(=O)[C@H](C)NC(=O)[C@H](CC(=O)O)NC(=O)[C@H](CCC(=O)O)NC(=O)[C@H](CCC(=O)O)NC(=O)[C@@H]1CCCN1C(=O)[C@H](CCCCNC(=O)COCCOCCNC(=O)COCCOCCNC(=O)CC[C@H](NC(=O)CCCCCCCCCCCCCCCCC(=O)O)C(=O)O)NC(=O)[C@H](CCC(=O)O)NC(=O)[C@@H]1CCCN1C(=O)[C@H](C)NC(=O)CC(C)C)[C@@H](C)O)C(=O)N[C@@H](CCC(N)=O)C(=O)N[C@@H](CCCNC(=N)N)C(=O)N[C@@H](Cc1ccc(O)cc1)C(=O)N[C@@H](Cc1ccc(O)cc1)C(=O)N[C@H](C(=O)N[C@@H](CO)C(=O)N[C@@H](CC(C)C)C(=O)N[C@@H](CCCNC(=N)N)C(=O)N[C@@H](Cc1c[nH]cn1)C(=O)N[C@@H](Cc1ccc(O)cc1)C(=O)N[C@@H](Cc1ccc(O)cc1)C(=O)N[C@@H](CC(N)=O)C(=O)N[C@@H](Cc1c[nH]c2ccccc12)C(=O)N[C@@H](CC(C)C)C(=O)N[C@H](C(=O)N[C@@H](CCCNC(=N)N)C(=O)N[C@@H](CCC(N)=O)C(=O)N[C@@H](CCCNC(=N)N)C(=O)N[C@@H](Cc1ccc(O)cc1)C(N)=O)[C@@H](C)O)C(C)C [Compound 171, N{alpha-4}-(3-methylbutanoyl)-N{epsilon-7}-[2-(2-{2-[2-(2-{2-[(4S)-4-carboxy-4-(17-carboxyheptadecanamido)butanamido]ethoxy}ethoxy)acetamido]ethoxy}ethoxy)acetamido]-[4A,7K,9E,13T,17I,18Q,22V,28Y,30W,31L]hPYY (4-36)]
4.6	0.75	3	–	–	–	11.1	CC(C)CC(=O)N[C@@H](C)C(=O)N1CCC[C@H]1C(=O)N[C@@H](C)C(=O)N[C@@H](CCCCNC(=O)COCCOCCNC(=O)COCCOCCNC(=O)CC[C@H](NC(=O)CCCCCCCCCCCCCCCCC(=O)O)C(=O)O)C(=O)N1CCC[C@H]1C(=O)N[C@@H](CCC(=O)O)C(=O)N[C@@H](CCC(=O)O)C(=O)N[C@@H](CC(=O)O)C(=O)N[C@@H](C)C(=O)N[C@@H](CO)C(=O)N1CCC[C@H]1C(=O)N[C@@H](CCC(=O)O)C(=O)N[C@@H](CCC(=O)O)C(=O)N[C@@H](CC(C)C)C(=O)N[C@@H](CCC(N)=O)C(=O)N[C@@H](CCCNC(=N)N)C(=O)N[C@@H](Cc1ccc(O)cc1)C(=O)N[C@@H](Cc1ccc(O)cc1)C(=O)N[C@H](C(=O)N[C@@H](CO)C(=O)N[C@@H](CC(C)C)C(=O)N[C@@H](CCCNC(=N)N)C(=O)N[C@@H](Cc1c[nH]cn1)C(=O)N[C@@H](Cc1ccc(O)cc1)C(=O)N[C@@H](Cc1ccc(O)cc1)C(=O)N[C@@H](CC(N)=O)C(=O)N[C@@H](Cc1c[nH]c2ccccc12)C(=O)N[C@@H](CC(C)C)C(=O)N[C@H](C(=O)N[C@@H](CCCNC(=N)N)C(=O)N[C@@H](CCC(N)=O)C(=O)N[C@@H](CCCNC(=N)N)C(=O)N[C@@H](Cc1ccc(O)cc1)C(N)=O)[C@@H](C)O)C(C)C [Compound 203, N{alpha-4}-(3-methylbutanoyl)-N{epsilon-7}-[2-(2-{2-[2-(2-{2-[(4S)-4-carboxy-4-(17-carboxyheptadecanamido)butanamido]ethoxy}ethoxy)acetamido]ethoxy}ethoxy)acetamido]-[4A,6A,7K,9E,18Q,22V,28Y,30W,31L]hPYY (4-36)]
